Data: ChEMBL document CHEMBL5214910, “Rational Design of Dipicolylamine-Containing Carbazole Amphiphiles Combined with Zn2+ as Potent Broad-Spectrum Antibacterial Agents with a Membrane-Disruptive Mechanism” (J Med Chem, 2021)
Values after ≈ are worked out from the molar mass of the structure shown.

Experiments:
Escherichia coli [1] = assay: Induction of drug resistance in Escherichia coli ATCC 25922 assessed as fold change in MIC incubated for 15 days; type: functional; conditions: time 15.0 day
Pseudomonas aeruginosa [2] = assay: Antibacterial activity Pseudomonas aeruginosa ATCC 9027 assessed as inhibition of bacterial growth incubated for 24 hrs by Muller hinton broth based dilution assay; type: functional
Staphylococcus aureus [3] = assay: Antibacterial activity against Staphylococcus aureus ATCC 29213 assessed as inhibition of bacterial growth incubated for 24 hrs by Muller hinton broth based dilution assay; type: functional
Staphylococcus aureus [4] = assay: Antibacterial activity against Methicillin-resistant Staphylococcus aureus N315 assessed as inhibition of bacterial growth incubated for 24 hrs by Muller hinton broth based dilution assay; type: functional
Staphylococcus aureus [5] = assay: Antibacterial activity against Staphylococcus aureus ATCC 29213 assessed as inhibition of bacterial growth incubated for 24 hrs in the presence of 12.5 ug/mL Zn2+ by Muller hinton broth based dilution assay; type: functional
Escherichia coli [6] = assay: Antibacterial activity Escherichia coli ATCC 25922 assessed as inhibition of bacterial growth incubated for 24 hrs in the presence of 12.5 ug/mL Zn2+ by Muller hinton broth based dilution assay; type: functional
[7] = Hemolytic activity in rabbit RBC incubated for 1 hrs by fluorescence based microplate reader assay; type: toxicity, cell-based, Oryctolagus cuniculus, Erythrocyte; conditions: rabbit red blood cells (erythrocytes)
Staphylococcus aureus [8] = assay: Antibacterial activity against Methicillin-resistant Staphylococcus aureus NCTC10442 assessed as inhibition of bacterial growth incubated for 24 hrs in the presence of 12.5 ug/mL Zn2+ by Muller hinton broth based dilution assay; type: functional
[9] = Hemolytic activity in rabbit RBC incubated for 1 hrs in the presence of 12.5 ug/mL Zn2+ by fluorescence based microplate reader assay; type: toxicity, cell-based, Oryctolagus cuniculus, Erythrocyte; conditions: rabbit red blood cells (erythrocytes)
Acinetobacter baumannii [10] = assay: Antibacterial activity against Acinetobacter baumannii ATCC 17978 assessed as inhIbition of bacterial growth incubated for 24 hrs by Muller hinton broth based dilution assay; type: functional
Pseudomonas aeruginosa [11] = assay: Antibacterial activity Pseudomonas aeruginosa ATCC 9027 assessed as inhibition of bacterial growth incubated for 24 hrs in the presence of 12.5 ug/mL Zn2+ by Muller hinton broth based dilution assay; type: functional
Staphylococcus aureus [12] = assay: Antibacterial activity against Methicillin-resistant Staphylococcus aureus NCTC10442 assessed as inhibition of bacterial growth incubated for 24 hrs by Muller hinton broth based dilution assay; type: functional
Staphylococcus aureus [13] = assay: Antibacterial activity against Methicillin-resistant Staphylococcus aureus N315 assessed as inhibition of bacterial growth incubated for 24 hrs in the presence of 12.5 ug/mL Zn2+ by Muller hinton broth based dilution assay; type: functional
Acinetobacter baumannii [14] = assay: Antibacterial activity against Acinetobacter baumannii R2889 assessed as inhIbition of bacterial growth incubated for 24 hrs in the presence of 12.5 ug/mL Zn2+ by Muller hinton broth based dilution assay; type: functional
Escherichia coli [15] = assay: Antibacterial activity Escherichia coli ATCC 25922 assessed as inhibition of bacterial growth incubated for 24 hrs by Muller hinton broth based dilution assay; type: functional
Acinetobacter baumannii [16] = assay: Antibacterial activity against Acinetobacter baumannii ATCC 17978 assessed as inhIbition of bacterial growth incubated for 24 hrs in the presence of 12.5 ug/mL Zn2+ by Muller hinton broth based dilution assay; type: functional
Acinetobacter baumannii [17] = assay: Antibacterial activity against Acinetobacter baumannii R2889 assessed as inhIbition of bacterial growth incubated for 24 hrs by Muller hinton broth based dilution assay; type: functional
Pseudomonas aeruginosa [18] = assay: Antibacterial activity against Pseudomonas aeruginosa ATCC 9027 in C57BL/6 mouse model of bacterial keratitis assessed as log reduction in viable bacterial count in infected cornea at 0.3 % pre-infected with bacteria for 24 hrs followed by topical administration of compound four times a day for 3 days; type: functional; conditions: route top, time 3 day

| Compound | fold change (FC) (Escherichia coli [1]) | MIC (Pseudomonas aeruginosa [2]) [µg/mL] | MIC (Staphylococcus aureus [3]) [µg/mL] | MIC (Staphylococcus aureus [4]) [µg/mL] | MIC (Staphylococcus aureus [5]) [µg/mL] | MIC (Escherichia coli [6]) [µg/mL] | HC50 at 1 h [7] [µg/mL] | MIC (Staphylococcus aureus [8]) [µg/mL] | HC50 at 1 h [9] [µg/mL] | MIC (Acinetobacter baumannii [10]) [µg/mL] | MIC (Pseudomonas aeruginosa [11]) [µg/mL] | MIC (Staphylococcus aureus [12]) [µg/mL] | MIC (Staphylococcus aureus [13]) [µg/mL] | MIC (Acinetobacter baumannii [14]) [µg/mL] | MIC (Escherichia coli [15]) [µg/mL] | MIC (Acinetobacter baumannii [16]) [µg/mL] | MIC (Acinetobacter baumannii [17]) [µg/mL] | log(activity) (Pseudomonas aeruginosa [18]) |
| --- | --- | --- | --- | --- | --- | --- | --- | --- | --- | --- | --- | --- | --- | --- | --- | --- | --- | --- |
| CC1(C)S[C@@H]2[C@H](NC(=O)[C@H](N)c3ccc(O)cc3)C(=O)N2[C@H]1C(=O)O | 16 |  |  |  |  |  |  |  |  |  |  |  |  |  |  |  |  |  |
| CCCCCn1c2ccccc2c2c(OCC(O)CN(Cc3ccccn3)Cc3ccccn3)cccc21 (stereo not drawn) |  | > 50 | 1.56 (≈ 3.07 µM) | 1.56 (≈ 3.07 µM) | 1.56 | 1.56 | > 200 | 0.78 | > 200 | 3.12 (≈ 6.14 µM) | 6.25 | 1.56 (≈ 3.07 µM) | 0.78 | 3.12 | 6.25 (≈ 12.3 µM) | 3.12 | 3.12 (≈ 6.14 µM) |  |
| COc1c(N2CCNC(C)C2)c(F)cc2c(=O)c(C(=O)O)cn(C3CC3)c12 (stereo not drawn) [GATIFLOXACIN] |  |  |  |  |  |  |  |  |  |  |  |  |  |  |  |  |  | 3.03 |
| CCCCCCCCCn1c2ccccc2c2c(OCC3CO3)cccc21 (stereo not drawn) |  | > 50 | > 50 | > 50 |  |  | > 200 |  |  | > 50 |  | > 50 |  |  | > 50 |  | > 50 |  |
| CCCCCCCn1c2ccccc2c2c(OCC3CO3)cccc21 (stereo not drawn) |  | > 50 | > 50 | > 50 |  |  | > 200 |  |  | > 50 |  | > 50 |  |  | > 50 |  | > 50 |  |
| CCCCCn1c2ccccc2c2c(OCC3CO3)cccc21 (stereo not drawn) |  | > 50 | > 50 | > 50 |  |  | > 200 |  |  | > 50 |  | > 50 |  |  | > 50 |  | > 50 |  |
| FC(F)(F)CCCn1c2ccccc2c2c(OCC3CO3)cccc21 (stereo not drawn) |  | > 50 | > 50 | > 50 |  |  |  |  |  | > 50 |  | > 50 |  |  | > 50 |  | > 50 |  |
| OC(COc1cccc2c1c1ccccc1n2CCCC(F)(F)F)CN(Cc1ccccn1)Cc1ccccn1 (stereo not drawn) |  | > 50 | 3.12 (≈ 5.7 µM) | 3.12 (≈ 5.7 µM) | 1.56 | 3.12 | > 200 | 0.78 | > 200 | 6.25 (≈ 11.4 µM) | 12.5 | 1.56 (≈ 2.84 µM) | 1.56 | 3.12 | 12.5 (≈ 22.8 µM) | 3.12 | 6.25 (≈ 11.4 µM) |  |
| CC(C)=CCn1c2ccccc2c2c(OCC(O)CNCc3ccccn3)cccc21 (stereo not drawn) |  | > 50 | 6.25 (≈ 15 µM) | 6.25 (≈ 15 µM) | 3.12 | > 50 | > 200 | 6.25 | > 200 | > 50 | > 50 | 6.25 (≈ 15 µM) | 3.12 | > 50 | 50 (≈ 120 µM) | > 50 | > 50 |  |
| c1ccc2c(c1)[nH]c1cccc(OCC3CO3)c12 (stereo not drawn) |  | > 50 | > 50 | > 50 |  |  | > 200 |  |  | > 50 |  | > 50 |  |  | > 50 |  | > 50 |  |
| CC(C)=CCn1c2ccccc2c2c(OCC(O)CN(C)C)cccc21 (stereo not drawn) |  | > 50 | 6.25 (≈ 17.7 µM) | 6.25 (≈ 17.7 µM) | 6.25 | 25 |  | 6.25 |  | 12.5 (≈ 35.5 µM) | > 50 | 6.25 (≈ 17.7 µM) | 6.25 | 12.5 | 25 (≈ 70.9 µM) | 12.5 | 12.5 (≈ 35.5 µM) |  |
